Earlier results as cited in US20170007630A1, “COMPOSITION AND METHOD OF DELIVERY OF L-ARABINOSE AND SELECT COMPOUNDS” (priority 2011, published 2017).

Tests used:
sucrase [1] = molecular target: T1, sucrase (Homo sapiens, UniProt P14410)
sucrase [2] = molecular target: T1, sucrase; conditions: compared with sucrose
[3] = one study conducted in China

T1 sequence (P14410 whole entry): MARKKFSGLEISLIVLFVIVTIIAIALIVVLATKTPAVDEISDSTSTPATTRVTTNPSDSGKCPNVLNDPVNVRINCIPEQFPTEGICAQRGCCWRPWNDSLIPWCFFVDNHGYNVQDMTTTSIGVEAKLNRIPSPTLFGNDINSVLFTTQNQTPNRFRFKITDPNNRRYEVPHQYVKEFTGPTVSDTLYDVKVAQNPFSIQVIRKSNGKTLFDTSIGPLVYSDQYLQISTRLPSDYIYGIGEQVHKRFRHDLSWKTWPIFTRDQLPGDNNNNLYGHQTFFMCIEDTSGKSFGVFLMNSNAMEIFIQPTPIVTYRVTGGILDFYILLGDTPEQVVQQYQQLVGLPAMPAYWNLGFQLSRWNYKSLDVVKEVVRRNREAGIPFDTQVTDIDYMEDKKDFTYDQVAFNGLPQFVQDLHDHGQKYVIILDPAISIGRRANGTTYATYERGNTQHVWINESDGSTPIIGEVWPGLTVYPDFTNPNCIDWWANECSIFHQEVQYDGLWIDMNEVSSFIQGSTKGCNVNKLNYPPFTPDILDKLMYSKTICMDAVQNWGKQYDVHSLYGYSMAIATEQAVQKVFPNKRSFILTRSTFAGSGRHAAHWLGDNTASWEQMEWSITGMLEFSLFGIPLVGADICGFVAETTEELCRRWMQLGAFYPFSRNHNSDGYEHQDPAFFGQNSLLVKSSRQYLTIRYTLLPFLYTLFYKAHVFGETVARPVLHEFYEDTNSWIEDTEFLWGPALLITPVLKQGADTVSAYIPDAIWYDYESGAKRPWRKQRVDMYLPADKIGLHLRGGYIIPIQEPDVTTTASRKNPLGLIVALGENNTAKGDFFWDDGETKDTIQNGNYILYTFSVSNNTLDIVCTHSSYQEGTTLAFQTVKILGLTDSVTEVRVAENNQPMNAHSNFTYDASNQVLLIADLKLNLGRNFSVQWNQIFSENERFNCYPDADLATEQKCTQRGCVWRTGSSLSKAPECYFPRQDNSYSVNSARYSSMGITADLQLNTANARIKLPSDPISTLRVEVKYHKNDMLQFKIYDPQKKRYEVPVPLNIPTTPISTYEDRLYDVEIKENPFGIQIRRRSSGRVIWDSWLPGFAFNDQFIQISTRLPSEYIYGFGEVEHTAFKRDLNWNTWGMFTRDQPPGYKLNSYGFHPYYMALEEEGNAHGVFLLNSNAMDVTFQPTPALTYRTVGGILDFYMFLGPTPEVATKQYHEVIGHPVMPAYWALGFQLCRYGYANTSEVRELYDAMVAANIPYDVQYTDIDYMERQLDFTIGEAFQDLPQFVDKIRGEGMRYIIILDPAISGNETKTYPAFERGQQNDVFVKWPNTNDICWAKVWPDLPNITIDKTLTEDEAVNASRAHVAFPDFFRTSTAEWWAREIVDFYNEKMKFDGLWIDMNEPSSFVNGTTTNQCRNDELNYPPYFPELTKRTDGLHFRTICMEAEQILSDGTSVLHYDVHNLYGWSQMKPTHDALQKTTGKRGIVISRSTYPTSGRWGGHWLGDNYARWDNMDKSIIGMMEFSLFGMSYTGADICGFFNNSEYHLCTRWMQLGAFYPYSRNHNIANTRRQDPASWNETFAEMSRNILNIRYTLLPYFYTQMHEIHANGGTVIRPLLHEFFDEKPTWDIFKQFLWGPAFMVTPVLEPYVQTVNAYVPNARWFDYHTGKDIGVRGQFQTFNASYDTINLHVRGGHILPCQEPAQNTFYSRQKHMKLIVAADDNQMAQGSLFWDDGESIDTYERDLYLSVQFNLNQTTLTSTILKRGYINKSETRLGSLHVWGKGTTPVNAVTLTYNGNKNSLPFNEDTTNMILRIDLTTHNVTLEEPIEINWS

parts of sucrose inhibited from breakdown per one part of L-arabinose (sucrase [1]): up to 20 parts | affinity to sucrase relative to sucrose (sucrase [2]): approximately 5 times | participants that experienced discomforts such as loose bowel or diarrhea [3]: about 40%
Compound: O=C[C@H](O)[C@@H](O)[C@@H](O)CO [L-arabinose]
